This assay concerns the target T1, human M1 receptor (hCHRM1) (Homo sapiens, UniProt P11229).
T1 construct: expressed in transfected cells; host or cells: CHO-K1
T1 sequence (P11229 1-460): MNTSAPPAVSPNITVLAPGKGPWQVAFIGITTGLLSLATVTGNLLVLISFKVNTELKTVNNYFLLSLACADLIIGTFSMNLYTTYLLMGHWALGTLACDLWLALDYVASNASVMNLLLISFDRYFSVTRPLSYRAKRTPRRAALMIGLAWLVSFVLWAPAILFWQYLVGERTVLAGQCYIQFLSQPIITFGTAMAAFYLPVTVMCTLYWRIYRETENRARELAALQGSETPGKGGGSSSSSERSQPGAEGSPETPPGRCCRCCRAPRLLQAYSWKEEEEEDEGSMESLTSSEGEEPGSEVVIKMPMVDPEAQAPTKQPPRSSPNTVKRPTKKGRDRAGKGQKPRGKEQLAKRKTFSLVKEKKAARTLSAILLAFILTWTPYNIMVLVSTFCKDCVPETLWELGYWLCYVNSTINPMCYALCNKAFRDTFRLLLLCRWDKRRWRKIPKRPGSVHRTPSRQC
The assay can be described thus: Measurement of M1 receptor positive allosteric modulator (M1PAM) activity (calcium fluorescence, Fluo-4, FDSS). The following applies: for activity (%) at 10 μM: 10 μM test compound, acetylcholine EC20 (final 0.8 nM) present, 100% = acetylcholine 1 μM, 0% = DMSO, CHO-K1 hCHRM1 cells; for EC50: inflection point of concentration-dependent curve, CHO-K1 cells stably expressing hCHRM1, in presence of acetylcholine at EC20 concentration (final 0.8 nM), read-out: IP value. Format: cell-based. On the procedure:
Measurement of M1 receptor positive allosteric modulator (M1PAM) activity
The activity of a test compound in the presence of acetylcholine at EC20 concentration (final concentration 0.8 nM), which affords an action corresponding to about 20% of the maximum activity, was measured as PAM activity. The method is as follows. CHO-K1 cells stably expressing a human M1 receptor (hCHRM1) were plated on a 384-well black clear bottom plate (BD Falcon) at 5,000 cells/well, and cultured in an incubator at 37° C., 5% CO2 for 1 day. The medium in the cell plate was removed, and assay buffer A containing a calcium indicator (Recording medium (DOJINDO LABORATORIES), 0.1% BSA (Wako Pure Chemical Industries, Ltd.), 2.5 μg/mL Fluo-4 AM (DOJINDO LABORATORIES), 0.08% Pluronic F127 (DOJINDO LABORATORIES) and 1.25 mM probenecid (DOJINDO LABORATORIES) were added at 30 μL/well. The cells were left standing in the incubator at 37° C., 5% CO2 for 30 min, and further left standing at room temperature for 30 min. A test compound prepared by diluting with assay buffer B (HESS (Invitrogen), 20 mM HEPES (Invitrogen), 0.1% BSA) containing 3.2 nM acetylcholine was added at 10 μL/well, and the fluorescence was measured by FDSS/μcell (Hamamatsu Photonics K.K.) for 1 min every for 1 second. With the definition that the amount of change in the fluorescence on addition of acetylcholine (final concentration 1 μM) is 100% and that on addition of DMSO instead of a test compound is 0%, the activity (%) of the test compound was calculated, and the inflection point in the concentration-dependent curve of the test compound was calculated as IP values.

SMILES strings stand for the structures. Where a name gives a salt, the structure may show the parent alone.

As to `Cc1c(Cc2ccc(-c3cnn(C)c3)nc2)cc2c(=O)n([C@H]3CCC[C@@H]3O)cnc2c1C` (single isomer, unassigned) [Example 51, 3-(trans-2-hydroxycyclopentyl)-7,8-dimethyl-6-((6-(1-methyl-1H-pyrazol-4-yl)pyridin-3-yl)methyl)quinazolin-4(3H)-one], the “activity (%) at 10 μM” value is recorded as 97% and the EC50 came to 79 nM.

`Cc1c(Cc2ccc(-n3cccn3)cc2)cc2c(=O)n([C@H]3COCC[C@@H]3O)cnc2c1C` (single isomer, unassigned) [Example 52, 3-(trans-4-hydroxytetrahydro-2H-pyran-3-yl)-7,8-dimethyl-6-(4-(1H-pyrazol-1-yl)benzyl)quinazolin-4(3H)-one]: the “activity (%) at 10 μM” value stood at 98% and the EC50 came out at 6 nM.

For the compound `Cc1c(Cc2ccc(-c3cnn(C)c3)nc2)cc2c(=O)n(CC3CCCO3)cnc2c1Cl` (stereo not drawn) [Example 25, 8-chloro-7-methyl-6-((6-(1-methyl-1H-pyrazo-4-yl)pyridin-3-yl)methyl)-3-(tetrahydrofuran-2-ylmethyl)quinazolin-4(3H)-one hydrochloride], the “activity (%) at 10 μM” value was 95% and the EC50 came to 62 nM.

As for `Cc1c(Cc2ccc(-n3cccn3)cc2)cc2c(=O)n([C@H]3COCC[C@@H]3O)cnc2c1F` [Example 38, 8-fluoro-3-((3S,4S)-4-hydroxytetrahydro-2H-pyran-3-yl)-7-methyl-6-(4-(1H-pyrazol-1-yl)benzyl)quinazolin-4(3H)-one], the “activity (%) at 10 μM” value was found to be 100% and the EC50 worked out at 17 nM.

As for `Cc1c(Cc2ccc(-c3cnn(C)c3)nc2)cc2c(=O)n(CC3CCCO3)nnc2c1C` (stereo not drawn) [Example 39, 7,8-dimethyl-6-((6-(1-methyl-1H-pyrazol-4-yl)pyridin-3-yl)methyl)-3-(tetrahydrofuran-2-ylmethyl)-1,2,3-benzotriazin-4(3H)-one], the “activity (%) at 10 μM” value stood at 97% and the EC50 was 85 nM.

Turning to `Cc1c(Cc2ccc(-n3cccn3)cc2)cc2c(=O)n([C@H]3COCC[C@@H]3O)nnc2c1C` [Example 41, 3-((3S,4S)-4-hydroxytetrahydro-2H-pyran-3-yl)-7,8-dimethyl-6-(4-(1H-pyrazol-1-yl)benzyl)-1,2,3-benzotriazin-4(3H)-one], the “activity (%) at 10 μM” value was 101% and the EC50 was found to be 29 nM.

Consider `Cc1c(Cc2ccc(-n3cccn3)cc2)cc2c(=O)n([C@H]3COCC[C@@H]3O)nnc2c1C` [Example 43, 3-((3S,4S)-4-hydroxytetrahydro-2H-pyran-3-yl)-7,8-dimethyl-6-(4-(1H-pyrazol-1-yl)benzyl)-1,2,3-benzotriazin-4(3H)-one], for which the “activity (%) at 10 μM” value is 100% and the EC50 is 14 nM.

Turning to `Cc1c(Cc2ccc(-n3cccn3)nc2)cc2c(=O)n([C@H]3COCC[C@@H]3O)nnc2c1C` [Example 44, 3-[(3S,4S)-4-hydroxytetrahydro-2H-pyran-3-yl]-7,8-dimethyl-6-{[6-(1H-pyrazol-1-yl)pyridin-3-yl]methyl}-1,2,3-benzotriazin-4(3H)-one], the “activity (%) at 10 μM” value turned out to be 100% and the EC50 was determined as 32 nM.

Consider `Cc1c(Cc2ccc(-c3ccn(C)n3)nc2)cc2c(=O)n(CC3CCCO3)nnc2c1Cl` (stereo not drawn) [Example 45, 8-chloro-7-methyl-6-((6-(1-methyl-1H-pyrazol-3-yl)pyridin-3-yl)methyl)-3-(tetrahydrofuran-2-ylmethyl)1,2,3-benzotriazin-4(3H)-one], for which the “activity (%) at 10 μM” value was found to be 95% and the EC50 worked out at 25 nM.

In the case of `Cc1c(Cc2ccc(-c3ccn(C)n3)cc2)cc2c(=O)n([C@H]3COCC[C@@H]3O)nnc2c1C` [Example 47, 3-((3S,4S)-4-hydroxytetrahydro-2H-pyran-3-yl)-7,8-dimethyl-6-(4-(1-methyl-1H-pyrazol-3-yl)benzyl)-1,2,3-benzotriazin-4(3H)-one], the “activity (%) at 10 μM” value is 95% and the EC50 came to 38 nM.

With `Cc1cc2nnn([C@H]3COCC[C@@H]3O)c(=O)c2cc1Cc1ccc(-c2ccn(C)n2)cc1` [Example 48, 3-((3S,4S)-4-hydroxytetrahydro-2H-pyran-3-yl)-7-methyl-6-(4-(1-methyl-1H-pyrazol-3-yl)benzyl)-1,2,3-benzotriazin-4(3H)-one], the “activity (%) at 10 μM” value stood at 98% and the EC50 worked out at 59 nM.

For the compound `Cc1c(Cc2ccc(-n3cccn3)cc2)cc2c(=O)n([C@H]3COCC[C@@H]3O)nnc2c1F` [Example 49, 8-fluoro-3-((3S,4S)-4-hydroxytetrahydro-2H-pyran-3-yl)-7-methyl-6-(4-(1H-pyrazol-1-yl)benzyl)-1,2,3-benzotriazin-4(3H)-one], the “activity (%) at 10 μM” value turned out to be 97% and the EC50 came out at 18 nM.

Consider `Cc1c(Cc2ccc(Cl)nc2)cc2c(=O)n([C@H]3CCCC[C@@H]3O)cnc2c1C` [Example 54, 6-((6-chloropyridin-3-yl)methyl)-3-((1S,2S)-2-hydroxycyclohexyl)-7,8-dimethylquinazolin-4(3H)-one], for which the “activity (%) at 10 μM” value was 96% and the EC50 came to 23 nM.

On to `Cc1c(Cc2ccc(-n3cccn3)cc2)cc2c(=O)n([C@H]3CCOC[C@@H]3O)cnc2c1C` [Example 55, 3-((3R,4S)-3-hydroxytetrahydro-2H-pyran-4-yl)-7,8-dimethyl-6-(4-(1H-pyrazol-1-yl)benzyl)quinazolin-4(3H)-one], for which the “activity (%) at 10 μM” value came out at 99% and the EC50 is 7.4 nM.

Turning to `Cc1c(Cc2ccc(-n3cccn3)cc2)cc2c(=O)n([C@H]3CCOC[C@@H]3O)nnc2c1C` [Example 56, 3-((3R,4S)-3-hydroxytetrahydro-2H-pyran-4-yl)-7,8-dimethyl-6-(4-(1H-pyrazol-1-yl)benzyl)-1,2,3-benzotriazin-4(3H)-one], the “activity (%) at 10 μM” value was found to be 98% and the EC50 was found to be 15 nM.

Consider `Cc1c(Cc2ccc(-c3ccn(C)n3)nc2)cc2c(=O)n([C@H]3CCCC[C@@H]3O)cnc2c1C` [Example 57, 3-((1S,2S)-2-hydroxycyclohexyl)-7,8-dimethyl-6-((6-(1-methyl-1H-pyrazol-3-yl)pyridin-3-yl)methyl)quinazolin-4(3H)-one], for which the “activity (%) at 10 μM” value is reported as 98% and the EC50 amounted to 7.3 nM.

For `Cc1c(Cc2ccc(-c3ccn(C)n3)nc2)cc2c(=O)n([C@H]3COCC[C@@H]3O)nnc2c1C` [Example 58, 3-((3S,4S)-4-hydroxytetrahydro-2H-pyran-3-yl)-7,8-dimethyl-6-((6-(1-methyl-1H-pyrazol-3-yl)pyridin-3-yl)methyl)-1,2,3-benzotriazin-4(3H)-one], the “activity (%) at 10 μM” value is listed as 95% and the EC50 stood at 14 nM.

Take `Cc1c(Cc2ccc(-c3cnn(C)c3)nc2)cc2c(=O)n([C@H]3CCCC[C@@H]3O)cnc2c1C` [Example 59, 3-((1S,2S)-2-hydroxycyclohexyl)-7,8-dimethyl-6-((6-(1-methyl-1H-pyrazol-4-yl)pyridin-3-yl)methyl)quinazolin-4(3H)-one]: the “activity (%) at 10 μM” value was 94% and the EC50 is 4.8 nM.

The record behind these values is US10548899B2, “Quinazolinone and benzotriazinone compounds with cholinergic muscarinin M1 receptor positive allosteric modulator activity” (TAKEDA PHARMACEUTICAL COMPANY LIMITED, priority 2015, dated 2020).
